# Experiments:
# [1] = system: estrogen receptors in the human endometrium; conditions: cited from earlier work
# [2] = tritium labeled, intravenously, two adult women; cited from earlier work
# human ERα = target: T1, human ERα (Homo sapiens, UniProt P03372); test: Competitive steroid binding assay, ERα; conditions: from Ki values for human ERα and ERβ
# T1 sequence (P03372 1-595): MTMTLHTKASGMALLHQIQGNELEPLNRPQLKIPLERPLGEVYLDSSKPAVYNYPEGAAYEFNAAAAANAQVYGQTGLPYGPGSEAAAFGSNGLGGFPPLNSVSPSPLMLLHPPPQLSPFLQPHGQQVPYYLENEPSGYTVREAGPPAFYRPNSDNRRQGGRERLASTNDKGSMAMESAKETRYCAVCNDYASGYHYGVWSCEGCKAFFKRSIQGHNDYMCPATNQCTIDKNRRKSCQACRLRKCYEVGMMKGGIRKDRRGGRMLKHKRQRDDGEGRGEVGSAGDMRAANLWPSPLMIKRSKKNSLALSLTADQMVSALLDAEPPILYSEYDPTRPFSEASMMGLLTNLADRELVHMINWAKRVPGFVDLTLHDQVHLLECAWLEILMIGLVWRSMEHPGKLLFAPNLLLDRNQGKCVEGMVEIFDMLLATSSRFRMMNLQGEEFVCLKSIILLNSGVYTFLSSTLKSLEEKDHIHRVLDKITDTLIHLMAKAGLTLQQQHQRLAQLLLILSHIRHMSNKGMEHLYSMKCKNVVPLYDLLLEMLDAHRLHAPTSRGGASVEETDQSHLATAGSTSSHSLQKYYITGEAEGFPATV
# OVX-rats = test: Endometrial proliferation after 4-week oral treatment (uterine weight, Ki67); format: in vivo, rat; conditions: 0.5 to […], 4 weeks (FIG. 5)
# Description: Endometrial proliferation was chosen as another relevant tissue-specific endpoint to determine the hormonal potency of estetrol after chronic (4-week), oral treatment in ovariectomized rats. An established 4-week animal model, also recommended for evaluation of agents for osteoporosis prevention and therapy, was used. […] 17α-ethinyl-estradiol (EE) and vehicle (1% ethanol/arachidis oil) served as additional controls in this bioassay.
# Three months old female Sprague-Dawley rats were either sham-operated (Sham) or ovariectomized (OVX) one day prior to commencement of the dosing study as described in Example 2. Ten animals per treatment group were orally dosed once per day for four consecutive weeks. The dosing commenced 1 day after surgical removal of the ovaries and was administered by oral gavage using a syringe and stainless steel gavage needle at doses of 0.1 mg/kg /day EE, or either 2.5 or 0.5 mg/kg/day E4. Vehicle control was daily administered to one group of OVX-animals and sham-operated rats. After treatment, anesthetized rats were subjected to cardiac puncture and asphyxiated by CO2 inhalation. The uterine horns were isolated and weighed and then fixed in 4% formaldehyde at 4° C. […] Proliferative indices were determined by scoring positively labeled cells on Ki67 immunostained sections. Typically, for each datapoint 1000 luminal epithelial cells were evaluated.
# ovariectomized rats = test: Modified 7-day vaginal cornification bioassay with uterine wet weight; format: in vivo, rat; conditions: OVX rats, po, 7 days
# Description: Uterine weight increase in the rat was chosen as another relevant tissue-specific endpoint to determine the hormonal potency of estetrol (E4), particularly in relationship to its hormonal potency to induce vaginal cornification and to correct for vaginal atrophy. Orally (po) administered E4 was therefore tested in a modified 7-day vaginal cornification bioassay (see also example 1), including uterine wet weight measurements at necropsy, to account for vaginal and uterotrophic effects.
# The uterotrophic response has been used for many years to assess estrogenic activity. The typical bioassay uses female rats with low levels of endogenous estrogens (e.g., ovariectomized adults or immature animals). In most assay designs the animals are dosed once or twice daily for 3 or 4 days, and twenty-four hours after the final dose the animals are killed, and the uteri excised and weighed. In the current bioassay, vaginal epithelial cornification, and uterine weight gain was evaluated in ovariectomized adult rats over a 7-day period. In this way, two distinct estrogen sensitive parameters could be evaluated concurrently.
# Adult intact female CD rats were ovariectomized to induce estrogen deficiency. […] Castrate vaginal smears are indicative that complete ovariectomy was achieved. […] Animals were orally dosed, once daily for 7 consecutive days with vehicle control (10% ethanol/sesame oil) or either 0.1, 0.3, 1.0, or 3.0 mg/kg/day E4. Daily vaginal lavages continued to be obtained for 7 days after dosing was initiated in order to detect vaginal cornification, as an indication of an estrogenic response. A drop of vaginal washings was placed on a glass slide and examined by light microscopy to detect the presence or absence of cornified epithelial cells. The cells present in the vaginal washings were recorded. Vaginal lavages were obtained prior to dosing on days 0-6 and prior to necropsy on day 7.
# On Study Day 7, following vaginal lavage 24 hours after the final dose, all rats were euthanized by CO2 asphyxiation. An abdominal incision was made and the uterus excised, blotted and weighed. The occurrence of vaginal cornification, indicative of an estrogenic response, is an “all or none” response. Therefore, data were expressed as the number of rats showing a vaginal estrogenic response (for one or more days) over the number of rats treated (ratio). A Z-test of proportions was used to compare the four test groups to the vehicle control group. Group means±SEM were also calculated for the uterine weights. […] Therefore, a Kruskal-Wallis non-parametric ANOVA on ranks was performed and significant differences across the four treatment groups and the vehicle control were determined using Dunn's method.
compound,measurement,setting,value
"C[C@]12CC[C@@H]3c4ccc(O)cc4CC[C@H]3[C@@H]1[C@@H](O)[C@@H](O)[C@@H]2O [E4, 1,3,5 (10)-estratrien-3,15α,16α,17β-tetrol]",relative binding constant to the estrogen receptor compared to 17β-estradiol (100%),[1]; Tseng et al. 1976,6.25%
same,"Relative binding to estrogen receptors, relative to 17β-estradiol",[1]; Tseng et al. 1978,1.5%
same,excretion and metabolism,[2],rapidly and completely excreted in urine as the glucosiduronate
same,Relative ERα/ERβ preference,human ERα,400%
same,"percentage of Ki67-positive luminal epithelial cells, dose trend",OVX-rats,declined with increasing doses
same,Uterine weight Mean,ovariectomized rats; 0.1 mg/kg/day,149.2 mg
same,Uterine weight Significantly different from vehicle (P < 0.05),ovariectomized rats; 0.1 mg/kg/day,no
same,Vaginal Cornification Non-responders,ovariectomized rats; 0.1 mg/kg/day,0
same,Vaginal Cornification Significantly different from vehicle (P < 0.05),ovariectomized rats; 0.1 mg/kg/day,yes
same,Vaginal Cornification responders,ovariectomized rats; 0.1 mg/kg/day,8
same,Uterine weight Mean,ovariectomized rats; 0.3 mg/kg/day,181.2 mg
same,Uterine weight Significantly different from vehicle (P < 0.05),ovariectomized rats; 0.3 mg/kg/day,no
same,Vaginal Cornification Non-responders,ovariectomized rats; 0.3 mg/kg/day,0
same,Vaginal Cornification Significantly different from vehicle (P < 0.05),ovariectomized rats; 0.3 mg/kg/day,yes
same,Vaginal Cornification responders,ovariectomized rats; 0.3 mg/kg/day,8
same,Uterine weight Mean,ovariectomized rats; 1.0 mg/kg/day,253.7 mg
same,Uterine weight Significantly different from vehicle (P < 0.05),ovariectomized rats; 1.0 mg/kg/day,yes
same,Vaginal Cornification Non-responders,ovariectomized rats; 1.0 mg/kg/day,0
same,Vaginal Cornification Significantly different from vehicle (P < 0.05),ovariectomized rats; 1.0 mg/kg/day,yes
same,Vaginal Cornification responders,ovariectomized rats; 1.0 mg/kg/day,8
same,Uterine weight Mean,ovariectomized rats; 3.0 mg/kg/day,308.4 mg
same,Uterine weight Significantly different from vehicle (P < 0.05),ovariectomized rats; 3.0 mg/kg/day,yes
same,Vaginal Cornification Non-responders,ovariectomized rats; 3.0 mg/kg/day,0
same,Vaginal Cornification Significantly different from vehicle (P < 0.05),ovariectomized rats; 3.0 mg/kg/day,yes
same,Vaginal Cornification responders,ovariectomized rats; 3.0 mg/kg/day,8

# From patent publication US8048869B2, “Pharmaceutical composition for use in hormone replacement therapy” (Pantarhei Bioscience B.V., priority 2001, dated 2011)
